Read-outs that look alike come from different tables or passages of the source.
Assays:
TrxR in MDA-MB-453 cells = experiment: Endogenous TrxR activity in cell lysates (DTNB reduction assay); assay type: cell-based, human; conditions: MDA-MB-453 cells without GSH depletion
[1] = tested on: newly diagnosed glioblastoma multiforme (GBM); experiment: Phase II clinical trial GBM, overall survival; assay type: in vivo, human
Source text: For assessing the efficacy of the treatment in terms of overall survival, the overall failure rate were estimated and compared to the failure rate of 0.6 per-person year of follow-up regarding the Phase III trial done by Stupp et al. in the same patient population treated with RT plus concomitant and adjuvant temozolomide.
The primary endpoint was death due to all causes. The survival time is defined from time of histological diagnosis to death occurrence. The overall failure rate was expressed as hazard of failure per person-year of follow-up. The total patient population for this part of the study was defined as all patients who have met the eligibility criteria, not met ineligibility criteria, and signed patient informed consent.
It yield above 90% power to detect a 30% reduction in hazard rate with observed hazard ratio of 0.7 (0.42 vs. 0.6) at an alpha level of 0.1 to be significant. The overall failure rate was estimated by dividing the number of events (deaths) by the total exposure time in the study cohort along with 95% confidence intervals. Survival probability and median time of survival was calculated using Kaplan-Meier method.

[2] = tested on: JNK, p38MAPK in MDA-MB-453 cells; experiment: Cell death signaling western blots (phospho-JNK, phospho-p38MAPK); conditions: MDA-MB-453, 100 μM
Method: (§1) Cells extracts were analyzed by SDS-PAGE either under reducing conditions or under non-reducing conditions in the case of Trx blot followed by blots anti-phospho-JNK, anti-phospho-p38MAPK, anti-cleaved-PARP and anti-Trx. Results are representative of three independent experiments.
(§2) After 2 h at 4° C., lysates were clarified by centrifugation and protein amounts were measured using the BCA assay (Pierce, Thermo scientific).
(§3) Equal amounts of proteins were resolved by SDS-PAGE under either non-reducing or reducing (5% 2-mercaptoethanol, 20 min at 60° C.) conditions, using 4-20% gels (Novex, Invitrogen), then subjected to semi-dry electrophoretic transfer onto nitrocellulose membranes.

[3] = human, in vivo
Source text: It was a single arm, multi dose, dose escalating trial in newly diagnosed GBM patients. The total number of patients was 43, with about 5 patients per cohort. Patients who tolerated radiation (XRT) and temozolomide (TMZ) were recruited. Inclusion criteria included completion of XRT and TMZ without grade 3 or 4 toxicity and labs within acceptable range within 6 weeks of completing XRT. The end points included safety, maximum tolerated dose (MTD), and signal of activity.
Using modified continual reassessment method, MTD was defined for metronomic and standard dose TMZ.

rat liver TrxR = rat liver TrxR (Rattus norvegicus, UniProt O89049); experiment: Electron paramagnetic resonance, DEPMPO spin trapping; conditions: 100 μM Iniparib, NADPH, aerobic
Method: Computer simulations of the spectra were performed using the program written by Rockenbauer and Korecz (25). […] Then the reaction mixture was transferred by aspiration into a gas permeable PTFE tubing (Extruded Sub-Lite-Wall®, inside diameter: 0.635 mm, wall thickness: 0.051 mm, Zeus Industrial Products Ltd., Ireland). The tubing was folded twice in a W-shape and inserted into a 4-mm EPR quartz tube for EPR analysis. […] To confirm the involvement of superoxide in the appearance of the EPR signal, 100 units of superoxide dismutase (SOD) were added to the incubation prior to TrxR addition. For anaerobic experiments, the reaction mixture was immediately transferred into the gas permeable tubing and nitrogen gas was flushed through a septum cap in the sealed EPR quartz tube during the whole experiment.

[4] = molecular target: T1, human recombinant glutathione S-transferase pi (GSTP1) (Homo sapiens, UniProt P09211); experiment: In vitro Iniparib-glutathione conjugation; assay type: biochemical; conditions: 30 μM, 1 mM GSH
T1 construct: purchased Acris
Method: Online solid phase extraction (SPE) was performed using the fully automated Spark Holland Symbiosis™ (Emmen, The Netherlands) in eXtraction Liquid Chromatography (XLC) mode. The Symbiosis™ has previously been described in detail (18). HySphere™ C18 HD 7 μm SPE cartridges were used (Spark Holland). Each cartridge was initially conditioned with 2 ml methanol+0.5% formic acid (FA) and then equilibrated with 2 ml water+0.5% FA, both at flow-rates of 4 ml/min. Sample (25 μl) was aspirated and loaded onto the cartridge with 1 ml water+0.5% FA at a flow-rate of 1 ml/min. […] After elution, the right clamp was washed successively with 2 ml water+0.5% FA, 2 ml methanol+0.5% FA and 2 ml water+0.5% FA at 4 ml/min. […] The mobile phase composition was returned to starting conditions over 1 min and maintained during 6 min for column equilibration. The total run time was 27 min. Mass spectrometry was performed using the Thermo® TSQ Quantum Discovery Max in electrospray positive ionization mode (Thermo, US) with the following parameters: capillary voltage=4.0 kV, capillary temperature=300° C., sheath gas pressure=40, auxiliary gas pressure=5.

[5] = tested on: Trx, JNK, p38MAPK, PARP in HCT116 cells; experiment: Cell death signaling western blots (Trx oxidation, phospho-JNK, phospho-p38MAPK, cleaved-PARP)
Method: as §1, §2, §3

T1 sequence (P09211 whole entry): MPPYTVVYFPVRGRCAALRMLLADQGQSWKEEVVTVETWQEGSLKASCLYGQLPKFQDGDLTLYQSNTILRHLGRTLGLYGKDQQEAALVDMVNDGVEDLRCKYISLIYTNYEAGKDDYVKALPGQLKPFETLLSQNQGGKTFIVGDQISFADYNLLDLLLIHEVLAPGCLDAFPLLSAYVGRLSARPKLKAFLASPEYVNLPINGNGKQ
Chain of rat liver TrxR (O89049 whole entry): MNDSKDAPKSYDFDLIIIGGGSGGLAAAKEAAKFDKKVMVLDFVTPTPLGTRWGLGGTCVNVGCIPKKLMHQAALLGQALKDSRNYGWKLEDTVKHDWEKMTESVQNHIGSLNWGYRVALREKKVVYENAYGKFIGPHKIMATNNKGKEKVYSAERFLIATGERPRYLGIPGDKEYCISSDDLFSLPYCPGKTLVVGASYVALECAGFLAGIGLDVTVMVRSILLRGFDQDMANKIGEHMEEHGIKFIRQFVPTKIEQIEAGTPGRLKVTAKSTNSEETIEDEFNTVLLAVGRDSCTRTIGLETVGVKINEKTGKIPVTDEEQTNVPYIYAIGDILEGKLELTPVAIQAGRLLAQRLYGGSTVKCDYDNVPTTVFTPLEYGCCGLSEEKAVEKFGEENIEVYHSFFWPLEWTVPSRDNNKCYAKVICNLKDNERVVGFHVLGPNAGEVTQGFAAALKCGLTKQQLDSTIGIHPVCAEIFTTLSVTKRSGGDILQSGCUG

NC(=O)c1ccc(I)c([N+](=O)[O-])c1 [Iniparib, 4-iodo-3-nitrobenzamide]
TrxR reductase activity (TrxR in MDA-MB-453 cells): reductase activity inhibition
2 Year Survival ([1]; Phase 2, N = 76): 42.1 % patients
3 Year Survival ([1]; Phase 2, N = 76): 23.7 % patients
reduced HR versus Stupp et al 2005 ([1]; single arm phase 2): ≥ 25%
JNK activation, time of peak [2]: 10 h
DLT: fatigue [3]: 1
DLT: hypersensitivity reaction [3]: 1
DLT: rash [3]: 1
DLT: thromboembolic event [3]: 1
Fatigue [3]: 28 (65) No. (% of pts)
Nausea [3]: 18 (42) No. (% of pts)
additional grade 3 toxicities [3]: neutropenia, lymphopenia, nausea, and elevated AST
Fatigue ([3]; 3 cycles (10 weeks each)): 13 (65) No. (% of pts)
Nausea ([3]; 3 cycles (10 weeks each)): 9 (45) No. (% of pts)
Fatigue ([3]; 6 cycles (monthly)): 15 (65) No. (% of pts)
Nausea ([3]; 6 cycles (monthly)): 9 (39) No. (% of pts)
DEPMPO/HOO• adduct signal (rat liver TrxR): five-fold
DEPMPO/HO• adduct signal (rat liver TrxR): doubled
reaction with GSH ([4]; absence of GSTP1): did not react
conversion of Iniparib to Iniparib-GS ([4]; recombinant GSTP1 added): complete conversion
JNK activation, time of occurrence ([5]; GSH-depleted HCT116, 100 μM, persisted until 24 h): 6 h
p38MAPK and JNK phosphorylation ([5]; GSH-depleted HCT116, 7 h or 24 h): activation of both p38MAPK and JNK phosphorylation
Trx oxidation ([5]; GSH-depleted HCT116, 7 h or 24 h, 100 μM Iniparib, 1 μM Auranofin, 100 nM Staurosporin): oligomeric/oxidized form of Trx accumulated
